Data on two molecules can be found in publication PMC6081875 (EJNMMI Research, 2018).

Structures are written as SMILES.

For one data set, the system named is bone marrow. Briefly: Bone marrow dosimetry, reference protocol (RP): sequential whole-body planar and quantitative SPECT images plus blood samples, organ-level S values. It is filed as in vivo. As for the experimental part:
(§1) Data for dosimetry were acquired during a routine 4-day in-patient stay following the radiopharmaceutical injection, in conjunction with standard clinical examinations. All patients received a 15-min one-bed abdominal SPECT scan and a 20-min whole-body planar scintigraphy at 24, 48, and 72 h post-injection (p. i.) on a dual-headed Symbia T2 SPECT/CT (Siemens Medical Solutions, Erlangen, Germany). Counts were detected for the photopeak window of 208 keV (width 15%) by the usage of a medium-energy low-penetration collimator. Two additional scatter windows were measured at 170 keV (width 15%) and 240 keV (width 10%). A low-dose AC-CT was acquired at the first image acquisition session for anatomical correlation and attenuation correction during quantitative SPECT reconstruction. For the determination of the absorbed dose to the bone marrow from the activity circulating in the blood, five venous blood samples were drawn from the site contralateral to injection at 30 and 80 min p. i. and 24, 48, and 72 h p. i..
Quantitative SPECT images were reconstructed as described by Delker et al. via a rotation-based, penalised, one-step-late ordered subset expectation maximisation algorithm, which included corrections for scatter, attenuation, and distance-dependent geometrical collimator blur. Attenuation correction was performed for each SPECT scan via the AC-CT, which was acquired along with the SPECT scan 24 h post-injection. To apply the attenuation correction, especially to the SPECT scans 48 and 72 h p. i., the single AC-CT was co-registered onto an initial SPECT reconstruction without attenuation correction by using a rigid body co-registration algorithm with six degrees of freedom (PMOD Version 3.609, PMOD Technologies, Zurich, Switzerland). If only one AC-CT is acquired for sequential SPECT imaging, special care has to be taken to minimise misregistration between SPECT images and separately acquired CT scans, as such a misalignment can distort the proper attenuation correction and, thus, activity quantification. This is in principal also true for serial SPECT and CT imaging, as even within a single image acquisition session patient movements cannot be entirely avoided. Scatter correction employed the triple energy window (TEW) method. Correction for distance-dependent collimator blur made use of a Gaussian blur model. Corrections for partial volume effects and dead time were not applied. For conversion of the measured counts per second and per voxel to Becquerel per millilitre, an appropriate calibration factor was determined. Therefore, we used a large cylinder of approximately 20 cm diameter, which was filled with a known activity concentration and which has been imaged and reconstructed via the same protocol.
For each patient, all acquired whole-body planar images were corrected for scatter and attenuation on a pixel basis via a dedicated MATLAB routine (Fig. 1); for the correction of scatter, the TEW method was applied, as for the quantitative SPECT images. For the attenuation correction, a linear projection of μ values along the ventral axis of the patient was created from the diagnostic CT image of the pre-therapeutic Ga-68 PET/CT scan, which covered nearly the whole patient body from the middle of the head to approximately the knees. Therefore, a conversion between the Hounsfield units (HUs) in the diagnostic CT and the μ values at 208 keV was established by acquiring a CT scan of a Gammex tissue phantom (Gammex 467; Gammex, Inc., Middleton, WI) with 16 tissue rods of known composition and thus known attenuation characteristics. The μ values of all rods were plotted against the measured HUs, and a bilinear fit model (range 1: HU = (− 688;0); range 2: HU = (0;1127)) was applied to the whole data set. This calibration curve allows for the assignment of μ values to a continuous range of HUs. […]

A short description of data set [1]: Whole-body effective half-life from sequential whole-body planar images (mono-exponential fit). It counts as in vivo, human. The settings on record: mono-exponential fit, 24, 48, 72 h p. i. As for the experimental part: as §1
For each patient, all acquired whole-body planar images were corrected for scatter and attenuation on a pixel basis via a dedicated MATLAB routine (Fig. 1); for the correction of scatter, the TEW method was applied, as for the quantitative SPECT images. For the attenuation correction, a linear projection of μ values along the ventral axis of the patient was created from the diagnostic CT image of the pre-therapeutic Ga-68 PET/CT scan, which covered nearly the whole patient body from the middle of the head to approximately the knees. Therefore, a conversion between the Hounsfield units (HUs) in the diagnostic CT and the μ values at 208 keV was established by acquiring a CT scan of a Gammex tissue phantom (Gammex 467; Gammex, Inc., Middleton, WI) with 16 tissue rods of known composition and thus known attenuation characteristics. The μ values of all rods were plotted against the measured HUs, and a bilinear fit model (range 1: HU = (− 688;0); range 2: HU = (0;1127)) was applied to the whole data set. This calibration curve allows for the assignment of μ values to a continuous range of HUs. The lower arms and legs as well as a part of the head were not included in the PET/CT data, as the arms are usually positioned above the head during the PET/CT scan and as the PET/CT scan is usually not acquired over the entire patient length. By contrast, the arms, legs, and head are fully included in the whole-body planar images, and an appropriate μ value has to be defined for each segment (Fig. 1). Thus, mean μ values derived from three patients with PET/CT acquisitions of the head, legs, and arms were assigned to the missing segments. Therefore, all segments—the part visible on the PET/CT and the missing parts of the head, arms, and legs—were delineated on the co-registered whole-body planar images (delineation and rigid body co-registration via PMOD Version 3.609). The resulting map of the regions of interest (ROI) was saved, with each ROI segment being characterised via a defined value. This ROI map was then loaded by a self-designed MATLAB routine, which assigned the defined μ value to each segment according to the ROI number. Afterwards, the resulting whole-body integral μ-map was blurred via a Gaussian filter with a width approximating an average resolution of the gamma camera (geometric resolution of full width at half maximum of 11 mm at 10 cm). Pixel-wise attenuation correction was finally performed in conjunction with geometric averaging of both planar views (conjugate view method).
Calibration of whole-body planar images was performed via the corresponding quantitative abdominal SPECT by using the fact that ideally the total activity ASPECT within the quantitative SPECT should be correlated to the number of counts per second (cps) xplanar in the planar abdominal counterpart multiplied by an appropriate calibration factor: […]

Where [2] appears, read: median of n = 5 patients per therapy, approx. 7.4 GBq Lu-177-Octreotate (NET) or 3.7 GBq Lu-177-PSMA-617 (mCRPC).
The mark [3] stands for this setting: median of n = 5 patients per therapy.

Take `C[C@@H](O)[C@H](NC(=O)[C@@H]1CSSC[C@H](NC(=O)[C@@H](Cc2ccccc2)NC(=O)CN2CCN(CC(=O)O)CCN(CC(=O)O)CCN(CC(=O)O)CC2)C(=O)N[C@@H](Cc2ccc(O)cc2)C(=O)N[C@H](Cc2c[nH]c3ccccc23)C(=O)N[C@@H](CCCCN)C(=O)N[C@@H]([C@@H](C)O)C(=O)N1)C(=O)O` [Lu-177-Octreotate, Lu-177-[DOTA^0,Tyr^3]-Octreotate, metal not drawn]: the “DBM ← total, total bone marrow absorbed dose, RP” value with bone marrow (setting [2]) is 12.1 mGy/GBq; in the data set with bone marrow (patient P1 (NET, 7654 MBq)), 12.1 mGy/GBq; with bone marrow (patient P2 (NET, 7425 MBq)) it was 9.6 mGy/GBq; with bone marrow (patient P3 (NET, 7420 MBq)), 15.6 mGy/GBq; with bone marrow (patient P4 (NET, 7409 MBq)) it was 11.8 mGy/GBq; in the data set with bone marrow (patient P5 (NET, 7410 MBq)), 12.7 mGy/GBq. The “T1/2, WB, planar-based whole-body effective half-life” value was found to be 43 h in data set [1] (setting [3]); 40 h in data set [1] (patient P1 (NET)); 43 h in data set [1] (patient P2 (NET)); 43 h in data set [1] (patient P3 (NET)); 52 h in data set [1] (patient P4 (NET)); 62 h in data set [1] (patient P5 (NET)).

As to `O=C(O)CC[C@H](NC(=O)N[C@@H](CCCCNC(=O)[C@H](Cc1ccc2ccccc2c1)NC(=O)[C@H]1CC[C@H](CNC(=O)CN2CCN(CC(=O)O)CCN(CC(=O)O)CCN(CC(=O)O)CC2)CC1)C(=O)O)C(=O)O` [Lu-177-PSMA-617, Lu-177-DKFZ-PSMA-617, metal not drawn], the “DBM ← total, total bone marrow absorbed dose, RP” value in the data set with bone marrow (setting [2]) is on record as 10.2 mGy/GBq; in the data set with bone marrow (patient P6 (mCRPC, 3718 MBq)), 10.2 mGy/GBq; in the data set on bone marrow (patient P7 (mCRPC, 3743 MBq)) it was 6.7 mGy/GBq; in the data set on bone marrow (patient P8 (mCRPC, 3745 MBq)), 16.8 mGy/GBq; in the data set on bone marrow (patient P9 (mCRPC, 3752 MBq)) it was 14.2 mGy/GBq; in the data set with bone marrow (patient P10 (mCRPC, 3700 MBq)) it was 8.3 mGy/GBq. Moreover, the “T1/2, WB, planar-based whole-body effective half-life” value in data set [1] (setting [3]) is recorded as 31 h; in data set [1] (patient P6 (mCRPC)) it was 22 h; in data set [1] (patient P7 (mCRPC)) it was 31 h; in data set [1] (patient P8 (mCRPC)), 65 h; in data set [1] (patient P9 (mCRPC)), 39 h; in data set [1] (patient P10 (mCRPC)), 29 h.
